# Experimental data as given in patent US11603524B2 (priority 2015, dated 2023).
# Like-named read-outs stand apart in the source and are kept apart here.
# T1: A8/A0, oxalate decarboxylase from Agrocybe aegerita, SEQ ID NO: 42 (Cyclocybe aegerita, UniProt A0A8S0X585)
# T1 construct: A0 from fungal cells (homogenate), A8 from culture supernatant of A. aegerita; A8 also recombinant in E. coli (pColdIV, pOTIpr or pET)
# T1 sequence (A0A8S0X585 with tags, fused parts or gaps): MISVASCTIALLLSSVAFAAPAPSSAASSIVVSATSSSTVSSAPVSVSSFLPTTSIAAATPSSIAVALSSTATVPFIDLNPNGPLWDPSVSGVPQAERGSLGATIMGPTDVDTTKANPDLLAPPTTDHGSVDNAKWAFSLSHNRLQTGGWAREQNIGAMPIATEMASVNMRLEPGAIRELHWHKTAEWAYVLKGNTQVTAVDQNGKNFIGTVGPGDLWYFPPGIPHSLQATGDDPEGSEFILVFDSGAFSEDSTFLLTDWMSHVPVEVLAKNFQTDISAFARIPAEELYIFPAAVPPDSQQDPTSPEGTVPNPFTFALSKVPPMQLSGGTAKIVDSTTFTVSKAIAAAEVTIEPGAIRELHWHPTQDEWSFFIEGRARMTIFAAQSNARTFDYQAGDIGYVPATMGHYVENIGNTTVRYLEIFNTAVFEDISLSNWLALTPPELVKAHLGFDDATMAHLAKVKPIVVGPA
# T2: Cb6301, oxalate decarboxylase from Synechococcus elongates 6301, SEQ ID NO: 2 (Synechococcus elongatus, UniProt A0A0H3K3X3)
# T2 construct: native trimer; the kinetic measurement was probably on the D29 form
# T2 sequence (A0A0H3K3X3 1-389): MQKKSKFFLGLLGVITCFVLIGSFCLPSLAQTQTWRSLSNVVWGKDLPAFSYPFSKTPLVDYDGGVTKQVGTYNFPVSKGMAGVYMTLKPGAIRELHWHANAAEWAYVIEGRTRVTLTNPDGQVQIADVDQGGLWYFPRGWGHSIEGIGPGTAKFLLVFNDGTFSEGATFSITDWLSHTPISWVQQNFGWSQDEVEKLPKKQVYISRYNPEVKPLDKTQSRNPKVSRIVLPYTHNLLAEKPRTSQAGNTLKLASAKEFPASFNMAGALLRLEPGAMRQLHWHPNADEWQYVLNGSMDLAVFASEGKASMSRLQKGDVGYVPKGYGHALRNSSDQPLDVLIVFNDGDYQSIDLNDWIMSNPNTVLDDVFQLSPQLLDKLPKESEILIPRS
# Columns and labels:
# [1] = biological target: T3, Bce, oxalate decarboxylase from Bacillus cereus, SEQ ID NO: 1 (Bacillus cereus, UniProt Q81GZ6); conditions: 2 mM chemical, 6 days at 40° C., pH 9.5, tested at pH 3, against Bce 40° C. control
# T3 sequence (Q81GZ6 entry or part of it): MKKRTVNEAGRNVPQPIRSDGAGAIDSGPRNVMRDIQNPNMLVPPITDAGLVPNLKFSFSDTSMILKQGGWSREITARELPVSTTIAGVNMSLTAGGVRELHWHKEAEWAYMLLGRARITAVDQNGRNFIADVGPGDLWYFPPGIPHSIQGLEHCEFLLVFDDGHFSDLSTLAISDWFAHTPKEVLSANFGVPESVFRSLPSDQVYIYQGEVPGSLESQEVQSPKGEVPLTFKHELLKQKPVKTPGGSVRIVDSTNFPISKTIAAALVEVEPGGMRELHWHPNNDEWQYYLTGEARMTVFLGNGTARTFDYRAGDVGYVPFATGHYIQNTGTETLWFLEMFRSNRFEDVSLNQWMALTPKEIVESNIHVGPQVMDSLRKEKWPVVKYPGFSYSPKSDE
# Description: (§5) For determining the pH activity profile of enzymes activity was determined from pH 1.5 to 8.0 using a combination of citrate and phosphate buffers (50 mM). Test sample is added to pre-heated reaction buffer and incubated at 37° C., shaking at 1100 rpm, for a range of set time points (t). The reaction is quenched at time t±5 seconds using 2.5 N H2SO4 at a 10% rate of acid to reaction mixture. The quenched reaction mixture is filtered and analyzed for formate concentration using an isocratic ion exclusion HPLC method.
# Injection volume is 40 μl, and mobile phase is 5 mM H2SO4 (Isocratic) with flow rate at 0.6 mL/min and column temperature at 40° C. Standards of oxalic acid and formic acid are analyzed during every batch to prepare the standard curves. The running time between each injection is 20 min, and oxalic acid and formic acid are eluted at around 8 min and 16 min, respectively, detected at wavelength 210 nm.
# Several different chemicals at final concentrations of 2 mM were added into the purified OxDC enzymes solution of Bce or Cb6301_D29, obtained as Example 3. After mixing well, these mixtures, in 50 mM Arginine at pH 9.5, were incubated at 40° C. without shaking (still) for 6 days. The enzymes themselves, without added chemicals, were incubated at 40° C. and 4° C. as controls. […]
# [2] = biological target: T1, A8/A0, oxalate decarboxylase from Agrocybe aegerita, SEQ ID NO: 42; assay: Enzyme kinetics, oxalate degradation by A8/A0 OxDC; type: biochemical
# Description: (§1) The enzyme kinetics of OxDC from four different species, Bce, Bcl, Cb6301_D29, and A8 were measured and compared to known kinetic data of YvrK. […] The A8 enzyme was measured at four independent pH's of: 5.0, 4.0, 3.5 and 3.0. […] The reaction was terminated by adding 2.5N H2SO4, and analyzed for formate content by HPLC, as described in Example 1. The reaction without oxalate was included as negative control. The initial reaction rates during the first 5 minutes were determined for substrate concentrations between 0.024-12.5 mM, using same procedure described in Example 1.
# (§2) To determine the kinetic parameters, kcat and Km, the reaction rates v0 at different substrate concentration [S] were fit to Michaelis-Menten equation in KaleidaGraph software: v0=kcat*[E]t*[S]/(Km+[S])
# (§3) Unprotonated glutamic acids in an undisrupted active site are more likely to be kept unprotonated than the equivalent residues in a disrupted active site (such as the active site of a disrupted hexamer).
# [3] = system: oxalate decarboxylase (OxDC) enzymes of Table 5; assay: Catalytic efficiency of the OxDC enzymes (range); type: biochemical; conditions: see Table 5
# Description: (§4) The enzyme kinetics of OxDC from four different species, Bce, Bcl, Cb6301_D29, and A8 were measured and compared to known kinetic data of YvrK. […] The reaction was terminated by adding 2.5N H2SO4, and analyzed for formate content by HPLC, as described in Example 1. The reaction without oxalate was included as negative control. The initial reaction rates during the first 5 minutes were determined for substrate concentrations between 0.024-12.5 mM, using same procedure described in Example 1.
# [4] = system: oxalate decarboxylases A8, Cb6301, Cb6312, Cb6803 and Bce; assay: Affinity for oxalate of A8, Cb6301, Cb6312, Cb6803 and Bce (range); type: biochemical
# Description: as §4
# [5] = biological target: T3, Bce, oxalate decarboxylase from Bacillus cereus, SEQ ID NO: 1; assay: Enzyme kinetics, oxalate degradation by Bce OxDC; conditions: pH 3.0 and below
# Description: as §5
# (§6) The quenched reaction mixture is filtered and analyzed on an Agilent 1100 series HPLC system equipped with Rezex™ ROA-Organic Acid H+ (8%), LC Column (300×7.8 mm) from Phenomenex. Injection volume is 40 μl, and mobile phase is 5 mM H2SO4 (Isocratic) with flow rate at 0.6 mL/min and column temperature at 40° C. Standards of oxalic acid and formic acid are analyzed during every batch to prepare the standard curves. The running time between each injection is 20 min, and oxalic acid and formic acid are eluted at around 8 min and 16 min, respectively, detected at wavelength 210 nm.
# (§7) The A8 enzyme was measured at four independent pH's of: 5.0, 4.0, 3.5 and 3.0. […] The reaction was terminated by adding 2.5N H2SO4, and analyzed for formate content by HPLC, as described in Example 1. […] The initial reaction rates during the first 5 minutes were determined for substrate concentrations between 0.024-12.5 mM, using same procedure described in Example 1.
# [6] = system: YvrK, oxalate decarboxylase from Bacillus subtilis, SEQ ID NO: 47; conditions: cited from earlier work
# [7] = biological target: T2, Cb6301, oxalate decarboxylase from Synechococcus elongates 6301, SEQ ID NO: 2; assay: Enzyme kinetics, oxalate, Cb6301 OxDC; type: biochemical; conditions: Cb6301, pH 3.0 and below
# Description: as §4
# O=C(O)C(=O)O = assay: purified protein, by the assay type; conditions: other: Bce, pH 3.0, 37° C.
# Description: as §5, §6, §7
# [8] = substrate: O=C(O)C(=O)O; assay: purified protein, by the assay type; type: biochemical, Synechococcus elongates 6301; conditions: other: Cb6301_D29, oxalate, pH 3.0, 37° C.
# Description: as §1, §2
# [9] = substrate: O=C(O)C(=O)O; assay: purified protein, by the assay type; type: biochemical, Bacillus clausii; conditions: other: Bcl, oxalate, pH 3.0, 37° C.
# Description: as §5, §6, §7
# [10] = substrate: O=C(O)C(=O)O; assay: purified protein, by the assay type; type: biochemical, Agrocybe aegerita
# Description: as §1, §2, §3
# [11] = other: A8, pH 3.0, 37° C., pH 3.0, 37.0 °C
molecule,measurement,setting,value
O=C(O)CN(CCN(CC(=O)O)CC(=O)O)CC(=O)O [EDTA],enzyme activity,[1],decreases significantly
O=C(O)C(=O)O [oxalate],Km,"[2]; A8/A0, pH 3.0 and below",< 1000 µM
same,Km as a function of pH,"[2]; A8, pH 5.0, 4.0, 3.5 and 3.0",decreases as the pH becomes more acidic
same,catalytic efficiency,[3],871-77000 conversions/M/s
same,Km,[4],80 to 500 µM
same,Km,[5],< 1000 µM
same,Km,"[6]; YvrK, oxalate, pH 4.2, 22° C.",8400 µM
same,Km,"[6]; YvrK, pH 4.0",8400 µM
same,kcat,"[6]; YvrK, pH 4.2, 22° C.",53 s⁻¹
same,kcat/KM,"[6]; YvrK, pH 4.2, 22° C.",6310 M⁻¹ s⁻¹
same,Km,"[6]; Yvrk, pH not given",8400 µM
same,Km,[7],< 1000 µM
"Bce, oxalate decarboxylase from Bacillus cereus, SEQ ID NO: 1 (Bacillus cereus ATCC 14579)",kcat,O=C(O)C(=O)O,11.2 s⁻¹
same,kcat/Km,O=C(O)C(=O)O,35000 M⁻¹ s⁻¹
"Cb6301_D29, oxalate decarboxylase from Synechococcus elongates 6301 where the first 29 amino acids at the n-terminus has been removed, SEQ ID NO: 3 … (protein, start Met followed by residues 31-389), recombinant in E. coli) MQTQTWRSLSNVVWGKDLPAFSYPFSKTPLVDYDGGVTKQVGTYNFPVSKGMAGVYMTLKPGAIRELHWHANAAEWAYVIEGRTRVTLTNPDGQVQIADVDQGGLWYFPRGWGHSIEGIGPGTAKFLLVFNDGTFSEGATFSITDWLSHTPISWVQQNFGWSQDEVEKLPKKQVYISRYNPEVKPLDKTQSRNPKVSRIVLPYTHNLLAEKPRTSQAGNTLKLASAKEFPASFNMAGALLRLEPGAMRQLHWHPNADEWQYVLNGSMDLAVFASEGKASMSRLQKGDVGYVPKGYGHALRNSSDQPLDVLIVFNDGDYQSIDLNDWIMSNPNTVLDDVFQLSPQLLDKLPKESEILIPRS",Km,[8],200 µM
same,kcat,[8],15.4 s⁻¹
same,kcat/Km,[8],77000 M⁻¹ s⁻¹
"Bcl, oxalate decarboxylase from Bacillus clausii, SEQ ID NO: 41 (Shouchella clausii KSM-K16) (protein) MKRGDNVKPLKGNPNIPQPIRADGAGGVDRGPRNLMRDLQNPNILVPPETDRGLIPNLRFSFSDAHMQLNHGGWSREITQRDLPIATTLAGVNMSLTPGGVRELHWHKQAEWSYMLLGHARITAVDQNGRNFIADVGPGDLWYFPPGIPHSIQGLDDGCEFLLVFDDGMFSDLSTLSLSDWMAHTPKDVLSANFGVPESVFATIPTEQVYIYQDEVPGPLQSQQINSPYGAVPQTFKHELLKQPPLVTPGGSVRIVDSRNFPVSKTIAAALVEVEPGAMREMHWHPNNDEWQYYLTGQARMTVFTGNGVARTFDYRAGDVGYVPFATGHYIQNTGNESVWFLEMFKSDRFEDVSLNQWLALTPTELVQHNIHVDSKFTNKLRKEKWPVVKYPTI",Km,[9],1200 µM
same,kcat,[9],1.05 s⁻¹
same,kcat/Km,[9],871 M⁻¹ s⁻¹
"A8/A0, oxalate decarboxylase from Agrocybe aegerita, SEQ ID NO: 42 (Cyclocybe aegerita) (protein, A0 from fungal cells (homogenate), A8 from culture supernatant of A. aegerita; A8 also recombinant in E. coli (pColdIV, pOTIpr or pET)) MISVASCTIALLLSSVAFAAPAPSSAASSIVVSATSSSTVSSAPVSVSSFLPTTSIAAATPSSIAVALSSTATVPFIDLNPNGPLWDPSVSGVPQAERGSLGATIMGPTDVDTTKANPDLLAPPTTDHGSVDNAKWAFSLSHNRLQTGGWAREQNIGAMPIATEMASVNMRLEPGAIRELHWHKTAEWAYVLKGNTQVTAVDQNGKNFIGTVGPGDLWYFPPGIPHSLQATGDDPEGSEFILVFDSGAFSEDSTFLLTDWMSHVPVEVLAKNFQTDISAFARIPAEELYIFPAAVPPDSQQDPTSPEGTVPNPFTFALSKVPPMQLSGGTAKIVDSTTFTVSKAIAAAEVTIEPGAIRELHWHPTQDEWSFFIEGRARMTIFAAQSNARTFDYQAGDIGYVPATMGHYVENIGNTTVRYLEIFNTAVFEDISLSNWLALTPPELVKAHLGFDDATMAHLAKVKPIVVGPA",Km,"[10]; other: A0, pH not given",80 µM
same,kcat,[10]; [11],42 s⁻¹
same,kcat/Km,[10]; [11],525000 M⁻¹ s⁻¹
